pIC50: −log10 of the molar value.
How the values were obtained:
[1] = system: MCAO ischemia-reperfusion rats; experiment: Rat ischemia-reperfusion (MCAO) in-vivo model with TTC staining; parameters: species or system Male SD rats; conditions: 2 mg/kg by gavage daily, FIG. 3
Excerpt: Experimental materials: Male SD rats, weighing 250-300 g, provided by the Model Animal Research Center of Nanjing University and raised in the Experimental Animal Center of China Pharmaceutical University; triphenyl tetrazolium chloride (TTC) and butyphthalide purchased from Sigma; test drug 4-trifluoromethyl-cinnamoyl-4-fluoro-L-phenylalanine prepared in Example 1 (Compound 2 shown), and test drug 4-hydroxy-3-methoxycinnamoyl-L-tyrosine (Compound 1 shown).
Experimental method: The rats were randomly divided into 5 groups, i.e., a blank group, a model group (MCAO group), an MCAO+4-hydroxy-3-methoxycinnamoyl-L-tyrosine (Compound 1 shown, 2 mg/kg) group, an MCAO+4-trifluoromethyl-cinnamoyl-4-fluoro-L-phenylalanine (Compound 2 shown, 2 mg/kg) group and an MCAO+positive drug butyphthalide (5 mg/kg) group. After successful modeling, administration of different doses of compounds by gavage was carried out every day for 15 consecutive days. After the administration, brains were harvested, subjected to TTC staining, and photographed and recorded.
The effect is better than that of the positive drug and 4-hydroxy-3-methoxycinnamoyl-L-tyrosine (Compound 1 shown).

[2] = system: MPTP-induced Parkinsonian mice; experiment: MPTP-induced Parkinsonian mouse rota-rod experiment; format: in vivo, C57BL/6 male mice; conditions: 2 mg/kg by gavage for 12 days before MPTP (20 mg/kg i.p. x4); tested 4 h, 24 h, 48 h, 72 h after modeling; FIG. 2
Excerpt: Experimental materials: 10-week-old C57BL/6 male mice (Nanjing Qinglongshan Farm), rota-rod treadmill (Beijing Zhongshi Technology), levodopa and MPTP (Sigma), test drug 4-trifluoromethyl-cinnamoyl-4-fluoro-L-phenylalanine prepared in Example 1 (Compound 2 shown), and test drug 4-hydroxy-3-methoxycinnamoyl-L-tyrosine (Compound 1 shown).
Experimental groups: Mice were randomly divided into 5 groups, 10 mice in each group: a blank group, a model group, a 4-hydroxy-3-methoxycinnamoyl-L-tyrosine (Compound 1 shown, 2 mg/kg) group, a 4-trifluoromethyl-cinnamoyl-4-fluoro-L-phenylalanine (Compound 2 shown, 2 mg/kg) group and a levodopa (15 mg/kg) group. Pre-dosing by gavage was carried out for 12 consecutive days. The blank group and the model group were given equal doses of PBS, and modeling was performed on the 13th day. The model group and the drug group were intraperitoneally injected with MPTP (20 mg/kg), once every 2 h, for 4 consecutive injections. After modeling, behavioral tests were carried out. The behavioral performance of mice was tested with a YLS-4C mouse rota-rod treadmill at 4 h, 24 h, 48 h, and 72 h after MPTP modeling. The time from the start of rotation of the rota-rod to the time leaving the rota-rod of the test mice was taken as the latency. The test time was 180 s, and each mouse was tested 3 times to obtain an average value. […]

[3] = target: T1, iNOS (Mus musculus, UniProt P29477); experiment: In vitro iNOS inhibitory effect (iNOS activity detection kit) in LPS-stimulated BV-2 cells; format: cell-based; conditions: compound 0.01-10 μM added 4 hours before LPS 500 ng/mL for 24 hours, FIG. 1, read-out: iNOS inhibition IC50
T1 sequence (P29477 1-1144): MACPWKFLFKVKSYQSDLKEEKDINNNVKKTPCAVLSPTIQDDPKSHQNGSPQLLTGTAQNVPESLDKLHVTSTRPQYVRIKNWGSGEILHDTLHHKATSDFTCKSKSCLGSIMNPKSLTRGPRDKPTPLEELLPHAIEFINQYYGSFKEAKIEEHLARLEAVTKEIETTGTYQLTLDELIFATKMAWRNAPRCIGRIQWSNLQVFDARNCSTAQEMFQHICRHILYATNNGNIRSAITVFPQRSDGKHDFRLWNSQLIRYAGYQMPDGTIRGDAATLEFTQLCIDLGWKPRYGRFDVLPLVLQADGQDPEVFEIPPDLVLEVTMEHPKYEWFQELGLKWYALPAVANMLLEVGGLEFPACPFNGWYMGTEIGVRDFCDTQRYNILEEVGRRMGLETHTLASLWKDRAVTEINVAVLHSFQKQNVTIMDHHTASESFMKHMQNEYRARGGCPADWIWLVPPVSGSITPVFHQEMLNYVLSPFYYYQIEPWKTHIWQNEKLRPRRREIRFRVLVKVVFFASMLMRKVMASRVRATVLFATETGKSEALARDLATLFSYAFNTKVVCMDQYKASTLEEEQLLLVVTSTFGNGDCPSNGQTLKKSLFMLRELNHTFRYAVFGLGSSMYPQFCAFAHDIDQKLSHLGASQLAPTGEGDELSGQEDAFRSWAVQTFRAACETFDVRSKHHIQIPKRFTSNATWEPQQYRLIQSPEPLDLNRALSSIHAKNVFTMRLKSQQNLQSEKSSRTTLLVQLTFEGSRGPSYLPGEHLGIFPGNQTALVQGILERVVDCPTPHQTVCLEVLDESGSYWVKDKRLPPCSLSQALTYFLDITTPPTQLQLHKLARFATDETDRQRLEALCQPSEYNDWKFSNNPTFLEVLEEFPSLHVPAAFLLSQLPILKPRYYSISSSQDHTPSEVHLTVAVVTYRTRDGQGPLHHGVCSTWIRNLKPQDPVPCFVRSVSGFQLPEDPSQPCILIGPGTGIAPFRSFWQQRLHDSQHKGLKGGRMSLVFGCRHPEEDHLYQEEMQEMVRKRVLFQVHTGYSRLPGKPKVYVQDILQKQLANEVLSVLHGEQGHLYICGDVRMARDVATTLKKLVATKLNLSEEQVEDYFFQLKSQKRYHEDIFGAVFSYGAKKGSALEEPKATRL
Procedure: Experimental materials: BV-2 cells (purchased from Shanghai Cell Bank, Chinese Academy of Sciences), DMEM cell culture fluid (Sigma), fetal bovine serum (Gibico), 96-well cell culture plate (Corning), DMSO (Sigma), LPS (Sigma), iNOS activity detection kit (Beyotime), test drug 4-trifluoromethyl-cinnamoyl-4-fluoro-L-phenylalanine prepared in Example 1, and microplate reader.
Then according to the group, the drug or blank culture fluid was added to the corresponding group for culture for 4 hours. Finally, except the blank group, each group was stimulated with LPS with a final concentration of 500 ng/mL for 24 hours. The iNOS activity assay was performed according to the requirements of the iNOS detection kit.

[4] = Physicochemical properties: solubility in solvents

O=C(/C=C/c1ccc(C(F)(F)F)cc1)N[C@@H](Cc1ccc(F)cc1)C(=O)O [Compound 2, 4-trifluoromethyl-cinnamoyl-4-fluoro-L-phenylalanine]
size of cerebral infarction caused by ischemia reperfusion (TTC staining) [1]: effectively reduce the increase in the size of cerebral infarction
dyskinesia of the Parkinsonian mice (rota-rod) [2]: effectively alleviate the dyskinesia
running time of the Parkinsonian mice (rota-rod latency) [2]: increase the running time
pIC50 [3]: 6.96
solubility ([4]; dichloromethane): soluble
solubility ([4]; methanol, acetone, ethyl acetate): easily soluble
solubility ([4]; petroleum ether, water): insoluble

— US12723018B2, “Cinnamoyl amino acid compound and use thereof” (CHINA PHARMACEUTICAL UNIVERSITY, priority 2020, dated 2026)
